{"source": "patent US20060009465A1", "about": "“Treatment of sleep disorders using sleep target modulators” (priority 2002, published 2006)", "test_system": "Male Wistar rats", "test": "SCORE-2000 sleep-wake assay (EEG/EMG, locomotor activity, body temperature)", "key": {"[1]": {"settings": "Example 2, 10 mg/kg IP at CT-18"}, "[2]": {"settings": "Example 3, male Wistar rats, 30 mg/kg"}, "[3]": {"settings": "Example 2, 3 mg/kg and 10 mg/kg IP at CT-5"}}, "note": "Entries after “also recorded” stand apart in the source; their conditions may differ.", "data": [{"smiles": "Cl.O=C(O)C1CN(CCCn2nc3ccccn3c2=O)CCN1c1cccc(Cl)c1", "note": "(centres unmarked) [HY-2724]", "values": [{"measurement": "increasing sleep and sleep consolidation", "setting": "Example 4, male Wistar rats, 30 mg/kg", "result": "ineffective"}]}, {"smiles": "O=c1n(CCCN2CCN(c3cccc(Cl)c3)CC2)nc2ccccn12", "note": "[Trazodone]", "values": [{"measurement": "REM Sleep Inhibition", "setting": "[1]", "result": "without evidence"}, {"measurement": "adverse thermoregulatory events post-treatment", "setting": "[1]", "result": "no evidence"}, {"measurement": "disproportional motor inhibition / locomotor activity changes", "setting": "[1]", "result": "without evidence; also recorded: no evidence"}, {"measurement": "nonREM sleep time", "setting": "[1]", "result": "increased nonREM sleep time; also recorded: markedly and significantly increased"}, {"measurement": "rebound insomnia", "setting": "[1]", "result": "without evidence; also recorded: no evidence"}, {"measurement": "Body Temp (CV) Adverse Event", "setting": "[2]", "result": "Yes"}, {"measurement": "Disproportional Motor Inhibition", "setting": "[2]", "result": "None"}, {"measurement": "Initial Sleep Interference", "setting": "[2]", "result": "initially interferes with sleep; also recorded: significant initial sleep interference"}, {"measurement": "REM Sleep Inhibition", "setting": "[2]", "result": "inhibits REM sleep; also recorded: significant REM sleep inhibition"}, {"measurement": "rebound insomnia", "setting": "[2]", "result": "None"}]}, {"smiles": "Clc1cccc(N2CCNCC2)c1", "note": "[m-CPP, meta-chlorophenylpiperazine]", "values": [{"measurement": "interference with sleep, time post-treatment", "setting": "[3]", "result": "2 to 3", "unit": "h"}, {"measurement": "rebound hypersomnolence", "setting": "[3]", "result": "followed by a rebound hypersomnolence"}, {"measurement": "reduction in nonREM sleep time, lasting post-treatment", "setting": "[3]", "result": "2 to 3", "unit": "h"}]}]}
